Reference: ChEMBL document CHEMBL1125127 (J Med Chem, 1990)

Tests used:
[1] = biological target: Beta-2 adrenergic receptor (Canis lupus familiaris, UniProt P54833); test: Beta2-receptor selectivity in canine lung tissue in anesthetized dogs; assay type: functional
Canis familiaris [2] = test: Percent change in heart rate (HR) from control at active dose 0.1-3.0 mg/kg administered intravenously in conscious dogs
Canis familiaris [3] = test: Concentration at which maximum change in […] was observed from control value in anesthetized dogs; The maximum observed change APD95 from control value and concentration at 30 uM when this occurred; assay type: functional, Canis lupus familiaris
Canis familiaris [4] = test: Percent change in blood pressure (BP) from control at active dose 0.1-3.0 mg/kg administered intraperitoneally in anesthetized dogs; assay type: functional, Canis lupus familiaris
Canis familiaris [5] = test: Percent change in FRP from control at active dose 0.1-3.0 mg/kg administered intravenously
Canis familiaris [6] = test: Concentration that causes a 20% increase in APD95 (action potential duration at 95% repolarization) from control value in anesthetized dogs; assay type: functional, Canis lupus familiaris
Canis familiaris [7] = test: Percent change in blood pressure (BP) from control at active dose 0.3-3 mg/kg administered intraperitoneally in anesthetized dogs; assay type: functional, Canis lupus familiaris
Canis familiaris [8] = test: Percent change in FRP from control at active dose 1.0-10 mg/kg administered intraduodenally in anesthetized dogs
Canis familiaris [9] = test: Percent change in blood pressure (BP) from control at active dose 1.0-10 mg/kg administered intraperitoneally in anesthetized dogs; assay type: functional, Canis lupus familiaris
Canis familiaris [10] = test: Percent change in heart rate (HR) from control at active dose 1.0-10 mg/kg administered intraduodenally
Canis familiaris [11] = test: Percent change in FRP from control at active dose 0.3-3 mg/kg administered intravenously
Canis familiaris [12] = test: Percent change in heart rate (HR) from control at active dose 0.3-3 mg/kg administered intravenously in conscious dogs
Canis familiaris [13] = test: Percent change in FRP from control at active dose 1.0-10 mg/kg administered intraperitoneally; assay type: functional, Canis lupus familiaris
Canis familiaris [14] = test: Percent change in heart rate (HR) from control at active dose 30 mg/kg administered intraperitoneally; assay type: functional, Canis lupus familiaris; details: route intraperitoneal
Canis familiaris [15] = test: Percent change in heart rate (HR) from control at active dose 1.0-10 mg/kg administered intraperitoneally in anesthetized dogs; assay type: functional, Canis lupus familiaris
Canis familiaris [16] = test: Percent change in blood pressure (BP) from control at active dose 30 mg/kg administered intraperitoneally in anesthetized dogs; assay type: functional, Canis lupus familiaris; details: route intraperitoneal
[17] = Ratio of number of active animals to number of treated at dose 30 mg/kg administered intraperitoneally in anesthetized dogs; No of animals tested=2; assay type: functional; details: route intraperitoneal
Canis familiaris [18] = test: (§1) Percent change in FRP from control at active dose 30 mg/kg administered intraperitoneally in anesthetized dogs; assay type: functional, Canis lupus familiaris; details: route intraperitoneal
Canis familiaris [19] = test: Percent change in blood pressure (BP) from control at active dose 10 mg/kg administered intraperitoneally in anesthetized dogs; assay type: functional, Canis lupus familiaris; details: route intraperitoneal
Canis familiaris [20] = test: Percent change in heart rate (HR) from control at active dose 10 mg/kg administered intraduodenally; details: route intraduodenal
Canis familiaris [21] = test: Percent change in FRP from control at active dose 10 mg/kg administered intraperitoneally in anesthetized dogs; assay type: functional, Canis lupus familiaris; details: route intraperitoneal
Canis familiaris [22] = test: Percent change in blood pressure (BP) from control at active dose 0.1-10 mg/kg administered intraperitoneally in anesthetized dogs; assay type: functional, Canis lupus familiaris
Canis familiaris [23] = test: Percent change in FRP from control at active dose 0.1-10 mg/kg administered intravenously
Canis familiaris [24] = test: Percent change in heart rate (HR) from control at active dose 0.1-10 mg/kg administered intraperitoneally in anesthetized dogs; assay type: functional, Canis lupus familiaris
Canis familiaris [25] = test: Concentration at which maximum change in […] was observed from control value in anesthetized dogs; The maximum observed change APD95 from control value and concentration at 100 uM when this occurred; assay type: functional, Canis lupus familiaris
[26] = biological target: Beta adrenergic receptor (Canis familiaris)
[27] = as §1; assay type: functional; details: route intraperitoneal
Canis familiaris [28] = test: Percent change in heart rate (HR) from control at active dose 30 mg/kg administered intraduodenally; details: route intraduodenal
Canis familiaris [29] = test: Maximum change in […] from control value in anesthetized dogs; 10 uM.; assay type: functional, Canis lupus familiaris
Canis familiaris [30] = test: Percent change in blood pressure (BP) from control at active dose 1.0-10 mg/kg administered intravenously in anesthetized dogs
Canis familiaris [31] = test: Percent change in heart rate (HR) from control at active dose 1.0-10 mg/kg administered intravenously in conscious dogs
Canis familiaris [32] = test: Percent change in FRP from control at active dose 1.0-10 mg/kg administered intravenously
[33] = Ratio of number of active animals to number of treated at dose 22-30 mg/kg administered intraperitoneally in anesthetized dogs; No of animals tested=2; assay type: functional
Canis familiaris [34] = test: Percent change in heart rate (HR) from control at active dose 22-30 mg/kg administered intraduodenally
Canis familiaris [35] = test: Percent change in blood pressure (BP) from control at active dose 22-30 mg/kg administered intraperitoneally in anesthetized dogs; assay type: functional, Canis lupus familiaris
Canis familiaris [36] = test: Percent change in FRP from control at active dose 22-30 mg/kg administered intraduodenally in anesthetized dogs

Chain of Beta-2 adrenergic receptor (P54833 whole entry): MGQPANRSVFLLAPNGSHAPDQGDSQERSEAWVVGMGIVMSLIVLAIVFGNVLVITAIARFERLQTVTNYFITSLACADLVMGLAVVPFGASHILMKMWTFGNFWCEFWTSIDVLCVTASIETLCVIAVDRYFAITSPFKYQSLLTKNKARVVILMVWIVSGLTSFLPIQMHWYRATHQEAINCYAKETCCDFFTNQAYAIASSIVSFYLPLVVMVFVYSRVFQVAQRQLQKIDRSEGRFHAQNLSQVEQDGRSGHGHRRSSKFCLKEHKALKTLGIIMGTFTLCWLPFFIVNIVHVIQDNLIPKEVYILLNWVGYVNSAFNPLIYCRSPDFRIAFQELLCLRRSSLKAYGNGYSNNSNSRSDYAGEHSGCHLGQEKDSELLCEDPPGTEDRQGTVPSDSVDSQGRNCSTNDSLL

CS(=O)(=O)Nc1ccc(OC[C@@H](O)CNCCOc2ccc(-n3ccnc3)cc2)cc1 (stereo in doubt; (S)-1) [ERSENTILIDE] gave an IC50 [1] of 50 µM, a Change (Canis familiaris [2]) of -2% and a Max delta (Canis familiaris [3]) of 73%. The Change (Canis familiaris [4]) was 4%, the Change (Canis familiaris [5]) was 5% and the “C20 APD95” value (Canis familiaris [6]) was 1.8 µM.
For CS(=O)(=O)Nc1ccc(OC[C@@H](O)CNCCOc2ccc(-n3ccnc3)cc2)cc1 (stereo in doubt; 1) [ERSENTILIDE], the Change (Canis familiaris [7]) was 3%, the Change (Canis familiaris [8]) was 27% and the IC50 [1] was 46.5 µM. For the same compound, the Change (Canis familiaris [9]) was 3%, the Change (Canis familiaris [10]) was -16% and the Max delta (Canis familiaris [3]) was 92%. For the same compound, the Change (Canis familiaris [11]) was 13%, the Change (Canis familiaris [12]) was 9% and the “C20 APD95” value (Canis familiaris [6]) was 0.4 µM.
With CS(=O)(=O)Nc1ccc(N2CCN(CC(O)CON=C(C3CC3)C3CC3)CC2)cc1 (stereo unspecified) the Change (Canis familiaris [13]) was 6%, the Change (Canis familiaris [14]) was -17% and the Change (Canis familiaris [15]) was 9%. It also gave a Change (Canis familiaris [9]) of 8%, a Change (Canis familiaris [16]) of 17% and a Max delta (Canis familiaris [3]) of 45%. It also gave a Ratio [17] of 1, a Change (Canis familiaris [18]) of 15% and a C20 (Canis familiaris [6]) of 8 µM.
Compound CS(=O)(=O)Nc1ccc(C(O)CNCCOc2ccc(-n3ccnc3)cc2)cc1 (stereo unspecified) has a Change (Canis familiaris [19]) of 17%, a Change (Canis familiaris [20]) of -18% and a Change (Canis familiaris [21]) of 24%. The IC50 [1] was 5.7 µM, the Change (Canis familiaris [22]) was -4% and the Change (Canis familiaris [23]) was 15%. For the same compound, the Change (Canis familiaris [24]) was 1%, the Max delta (Canis familiaris [25]) was 155% and the “C20 APD95” value (Canis familiaris [6]) was under 1 µM.
For O=C(NCCNCC(O)COc1cccc2ccccc12)c1ccc(-n2ccnc2)cc1 (stereo unspecified), the IC50 [26] was 0.42 µM, the Change (Canis familiaris [13]) was 6% and the Change [27] was 13%. It also gave a Change (Canis familiaris [28]) of -15%, a Change (Canis familiaris [15]) of 24% and a Change (Canis familiaris [9]) of -5%. The Change (Canis familiaris [16]) was 16%, the Ratio [17] was 2 and the Max delta (Canis familiaris [25]) was 57%. For the same compound, the C20 (Canis familiaris [6]) was 1.8 µM.
With Cc1cccc(OCC(O)CNCCOc2ccc(-n3ccnc3)cc2)c1 (stereo unspecified) the Max delta (Canis familiaris [29]) was 35%, the Change (Canis familiaris [30]) was -4% and the IC50 [1] was 0.51 µM. For the same compound, the Change (Canis familiaris [31]) was -12%, the Change (Canis familiaris [32]) was 9% and the “C20 APD95” value (Canis familiaris [6]) was 10 µM.
For COc1ccc(OCC(O)CNCCNC(=O)c2ccc(-n3ccnc3)cc2)cc1 (stereo unspecified), the IC50 [26] was 61.4 µM, the No. effective [33] was 2 and the Change (Canis familiaris [34]) was -35%. For the same compound, the Max delta (Canis familiaris [3]) was 47%, the Change (Canis familiaris [35]) was -1% and the Change (Canis familiaris [36]) was 24%. It also gave a C20 (Canis familiaris [6]) of 6.6 µM.
